# From the NIST ThermoML archive (doi:10.1016/j.fluid.2008.02.021)
# Numbers after ± are expanded uncertainties.
# Key:
# [1] = excess molar enthalpy (molar enthalpy of mixing); xn = mol fraction of the nth substance listed; settings: Liquid, Flow calorimetry
# [2] = for vapor or sublimation pressure: Liquid, Closed cell (Static) method; for Normal melting temperature: Crystal
smiles,measurement,setting,value
CCCCCCC(C)=O [2-octanone] + CCCCCCO,excess molar enthalpy,"[1]; 363.15 K, 1617 kPa, x2 = 0.062",0.0819 ± 0.00105 kcal/mol
same,excess molar enthalpy,"[1]; 363.15 K, 1617 kPa, x2 = 0.122",0.152 ± 0.00177 kcal/mol
same,excess molar enthalpy,"[1]; 363.15 K, 1617 kPa, x2 = 0.181",0.21 ± 0.00239 kcal/mol
same,excess molar enthalpy,"[1]; 363.15 K, 1617 kPa, x2 = 0.238",0.257 ± 0.00287 kcal/mol
same,excess molar enthalpy,"[1]; 363.15 K, 1617 kPa, x2 = 0.294",0.292 ± 0.00311 kcal/mol
same,excess molar enthalpy,"[1]; 363.15 K, 1617 kPa, x2 = 0.349",0.319 ± 0.00335 kcal/mol
same,excess molar enthalpy,"[1]; 363.15 K, 1617 kPa, x2 = 0.402",0.335 ± 0.00359 kcal/mol
same,excess molar enthalpy,"[1]; 363.15 K, 1617 kPa, x2 = 0.455",0.344 ± 0.00359 kcal/mol
same,excess molar enthalpy,"[1]; 363.15 K, 1617 kPa, x2 = 0.506",0.345 ± 0.00359 kcal/mol
same,excess molar enthalpy,"[1]; 363.15 K, 1617 kPa, x2 = 0.557",0.341 ± 0.00359 kcal/mol
same,excess molar enthalpy,"[1]; 363.15 K, 1617 kPa, x2 = 0.605",0.327 ± 0.00359 kcal/mol
same,excess molar enthalpy,"[1]; 363.15 K, 1617 kPa, x2 = 0.652",0.31 ± 0.00335 kcal/mol
same,excess molar enthalpy,"[1]; 363.15 K, 1617 kPa, x2 = 0.699",0.287 ± 0.00311 kcal/mol
same,excess molar enthalpy,"[1]; 363.15 K, 1617 kPa, x2 = 0.745",0.259 ± 0.00287 kcal/mol
same,excess molar enthalpy,"[1]; 363.15 K, 1617 kPa, x2 = 0.79",0.227 ± 0.00263 kcal/mol
same,excess molar enthalpy,"[1]; 363.15 K, 1617 kPa, x2 = 0.833",0.19 ± 0.00213 kcal/mol
same,excess molar enthalpy,"[1]; 363.15 K, 1617 kPa, x2 = 0.876",0.148 ± 0.00172 kcal/mol
same,excess molar enthalpy,"[1]; 363.15 K, 1617 kPa, x2 = 0.918",0.102 ± 0.00127 kcal/mol
same,excess molar enthalpy,"[1]; 363.15 K, 1617 kPa, x2 = 0.96",0.0525 ± 0.000765 kcal/mol
same,excess molar enthalpy,"[1]; 413.15 K, 1617 kPa, x2 = 0.062",0.059 ± 0.000956 kcal/mol
same,excess molar enthalpy,"[1]; 413.15 K, 1617 kPa, x2 = 0.122",0.112 ± 0.00136 kcal/mol
same,excess molar enthalpy,"[1]; 413.15 K, 1617 kPa, x2 = 0.181",0.157 ± 0.00182 kcal/mol
same,excess molar enthalpy,"[1]; 413.15 K, 1617 kPa, x2 = 0.238",0.194 ± 0.00217 kcal/mol
same,excess molar enthalpy,"[1]; 413.15 K, 1617 kPa, x2 = 0.294",0.222 ± 0.00239 kcal/mol
same,excess molar enthalpy,"[1]; 413.15 K, 1617 kPa, x2 = 0.349",0.244 ± 0.00263 kcal/mol
same,excess molar enthalpy,"[1]; 413.15 K, 1617 kPa, x2 = 0.402",0.259 ± 0.00287 kcal/mol
same,excess molar enthalpy,"[1]; 413.15 K, 1617 kPa, x2 = 0.455",0.268 ± 0.00287 kcal/mol
same,excess molar enthalpy,"[1]; 413.15 K, 1617 kPa, x2 = 0.506",0.271 ± 0.00287 kcal/mol
same,excess molar enthalpy,"[1]; 413.15 K, 1617 kPa, x2 = 0.556",0.269 ± 0.00287 kcal/mol
same,excess molar enthalpy,"[1]; 413.15 K, 1617 kPa, x2 = 0.605",0.26 ± 0.00287 kcal/mol
same,excess molar enthalpy,"[1]; 413.15 K, 1617 kPa, x2 = 0.652",0.247 ± 0.00263 kcal/mol
same,excess molar enthalpy,"[1]; 413.15 K, 1617 kPa, x2 = 0.699",0.229 ± 0.00263 kcal/mol
same,excess molar enthalpy,"[1]; 413.15 K, 1617 kPa, x2 = 0.745",0.206 ± 0.00229 kcal/mol
same,excess molar enthalpy,"[1]; 413.15 K, 1617 kPa, x2 = 0.79",0.181 ± 0.00206 kcal/mol
same,excess molar enthalpy,"[1]; 413.15 K, 1617 kPa, x2 = 0.833",0.152 ± 0.00177 kcal/mol
same,excess molar enthalpy,"[1]; 413.15 K, 1617 kPa, x2 = 0.876",0.12 ± 0.00143 kcal/mol
same,excess molar enthalpy,"[1]; 413.15 K, 1617 kPa, x2 = 0.918",0.0838 ± 0.00108 kcal/mol
same,excess molar enthalpy,"[1]; 413.15 K, 1617 kPa, x2 = 0.96",0.0429 ± 0.000669 kcal/mol
CCCCCCC(C)=O [2-octanone],vapor or sublimation pressure,[2]; 323.15 K,0.8706 ± 0.021 kPa
same,vapor or sublimation pressure,[2]; 363.15 K,6.397 ± 0.047 kPa
same,Normal melting temperature,[2],-19.7 ± 0.3 °C
OC1CCCCC1 [cyclohexanol],vapor or sublimation pressure,[2]; 323.15 K,0.7399 ± 0.016 kPa
same,vapor or sublimation pressure,[2]; 363.15 K,6.882 ± 0.039 kPa
same,Normal melting temperature,[2]; visual observation,24.1 ± 0.2 °C
OC1CCCCC1 [cyclohexanol] + O=C1CCCCC1,excess molar enthalpy,"[1]; 363.15 K, 1651 kPa, x2 = 0.051",0.065 ± 0.000884 kcal/mol
same,excess molar enthalpy,"[1]; 363.15 K, 1651 kPa, x2 = 0.102",0.124 ± 0.00148 kcal/mol
same,excess molar enthalpy,"[1]; 363.15 K, 1651 kPa, x2 = 0.153",0.175 ± 0.00198 kcal/mol
same,excess molar enthalpy,"[1]; 363.15 K, 1651 kPa, x2 = 0.204",0.22 ± 0.00239 kcal/mol
same,excess molar enthalpy,"[1]; 363.15 K, 1651 kPa, x2 = 0.254",0.255 ± 0.00287 kcal/mol
same,excess molar enthalpy,"[1]; 363.15 K, 1651 kPa, x2 = 0.305",0.285 ± 0.00311 kcal/mol
same,excess molar enthalpy,"[1]; 363.15 K, 1651 kPa, x2 = 0.355",0.307 ± 0.00335 kcal/mol
same,excess molar enthalpy,"[1]; 363.15 K, 1651 kPa, x2 = 0.406",0.321 ± 0.00335 kcal/mol
same,excess molar enthalpy,"[1]; 363.15 K, 1651 kPa, x2 = 0.456",0.33 ± 0.00359 kcal/mol
same,excess molar enthalpy,"[1]; 363.15 K, 1651 kPa, x2 = 0.506",0.334 ± 0.00359 kcal/mol
same,excess molar enthalpy,"[1]; 363.15 K, 1651 kPa, x2 = 0.555",0.328 ± 0.00359 kcal/mol
same,excess molar enthalpy,"[1]; 363.15 K, 1651 kPa, x2 = 0.605",0.316 ± 0.00335 kcal/mol
same,excess molar enthalpy,"[1]; 363.15 K, 1651 kPa, x2 = 0.655",0.299 ± 0.00311 kcal/mol
same,excess molar enthalpy,"[1]; 363.15 K, 1651 kPa, x2 = 0.705",0.275 ± 0.00311 kcal/mol
same,excess molar enthalpy,"[1]; 363.15 K, 1651 kPa, x2 = 0.754",0.244 ± 0.00263 kcal/mol
same,excess molar enthalpy,"[1]; 363.15 K, 1651 kPa, x2 = 0.803",0.208 ± 0.00232 kcal/mol
same,excess molar enthalpy,"[1]; 363.15 K, 1651 kPa, x2 = 0.853",0.164 ± 0.00189 kcal/mol
same,excess molar enthalpy,"[1]; 363.15 K, 1651 kPa, x2 = 0.902",0.115 ± 0.00139 kcal/mol
same,excess molar enthalpy,"[1]; 363.15 K, 1651 kPa, x2 = 0.951",0.0595 ± 0.000837 kcal/mol
same,excess molar enthalpy,"[1]; 413.15 K, 1582 kPa, x2 = 0.051",0.0388 ± 0.000621 kcal/mol
same,excess molar enthalpy,"[1]; 413.15 K, 1582 kPa, x2 = 0.102",0.0744 ± 0.00098 kcal/mol
same,excess molar enthalpy,"[1]; 413.15 K, 1582 kPa, x2 = 0.153",0.106 ± 0.00129 kcal/mol
same,excess molar enthalpy,"[1]; 413.15 K, 1582 kPa, x2 = 0.203",0.134 ± 0.00158 kcal/mol
same,excess molar enthalpy,"[1]; 413.15 K, 1582 kPa, x2 = 0.254",0.157 ± 0.00182 kcal/mol
same,excess molar enthalpy,"[1]; 413.15 K, 1582 kPa, x2 = 0.304",0.175 ± 0.00198 kcal/mol
same,excess molar enthalpy,"[1]; 413.15 K, 1582 kPa, x2 = 0.355",0.19 ± 0.00213 kcal/mol
same,excess molar enthalpy,"[1]; 413.15 K, 1582 kPa, x2 = 0.405",0.199 ± 0.00222 kcal/mol
same,excess molar enthalpy,"[1]; 413.15 K, 1582 kPa, x2 = 0.455",0.204 ± 0.00227 kcal/mol
same,excess molar enthalpy,"[1]; 413.15 K, 1582 kPa, x2 = 0.505",0.206 ± 0.00229 kcal/mol
same,excess molar enthalpy,"[1]; 413.15 K, 1582 kPa, x2 = 0.555",0.202 ± 0.00227 kcal/mol
same,excess molar enthalpy,"[1]; 413.15 K, 1582 kPa, x2 = 0.605",0.195 ± 0.0022 kcal/mol
same,excess molar enthalpy,"[1]; 413.15 K, 1582 kPa, x2 = 0.655",0.183 ± 0.00215 kcal/mol
same,excess molar enthalpy,"[1]; 413.15 K, 1582 kPa, x2 = 0.704",0.168 ± 0.00191 kcal/mol
same,excess molar enthalpy,"[1]; 413.15 K, 1582 kPa, x2 = 0.754",0.148 ± 0.00172 kcal/mol
same,excess molar enthalpy,"[1]; 413.15 K, 1582 kPa, x2 = 0.803",0.126 ± 0.00151 kcal/mol
same,excess molar enthalpy,"[1]; 413.15 K, 1582 kPa, x2 = 0.853",0.0985 ± 0.0012 kcal/mol
same,excess molar enthalpy,"[1]; 413.15 K, 1582 kPa, x2 = 0.902",0.0681 ± 0.000908 kcal/mol
same,excess molar enthalpy,"[1]; 413.15 K, 1582 kPa, x2 = 0.951",0.035 ± 0.000598 kcal/mol
CCCCCCO [hexan-1-ol],vapor or sublimation pressure,[2]; 323.15 K,0.7226 ± 0.027 kPa
same,vapor or sublimation pressure,[2]; 363.15 K,7.229 ± 0.049 kPa
same,Normal melting temperature,[2],-44 ± 1 °C
O=C1CCCCC1 [cyclohexanone],vapor or sublimation pressure,[2]; 323.15 K,2.23 ± 0.028 kPa
same,vapor or sublimation pressure,[2]; 363.15 K,13.05 ± 0.059 kPa
same,Normal melting temperature,[2]; visual observation,-27.2 ± 0.2 °C
